Data on 21 compounds can be found in patent publication US9926319B2, “Pyridyl piperidines” (MERCK PATENT GMBH, priority 2014, dated 2018).

One data set has as its system Wnt pathway. Put plainly: Cellular assay for Wnt pathway activity (luciferase reporter cell based assay). Conditions: 24 h, HEK293 luciferase reporter cell line (ER-DSH, TCF dependent promoter), induced with estrogen (1 μM), read-out: 7df3 IC50.
A short description of data set [1]: CLint (intrinsic clearance) assay, microsomal incubation. The data set is classed as in vitro ADME, Human. Conditions: NADPH, 37° C., up to 30 min; for microsomal CLint at 0.8 μM: human, liver microsomes, pH 7.4, human liver microsomes 0.5 mg/mL protein. The method, then:
2. CLint (Intrinsic Clearance) Assay
A Tecan Genesis workstation (RWS ASY 150/8) was used to perform the microsomal incubations. Analysis was carried out using a Waters ACQUITY UPLC system coupled to an ABSciex API3000 mass spectrometer. Data analysis was performed using Assay Explorer (Symyx).
0.1 M potassium phosphate buffer pH 7.4 containing 1 mM MgCl2
15 mM NADPH in phosphate buffer
5.0 mg protein/mL liver microsomes in phosphate buffer
Each experiment consists of 12 test and 2 reference compounds. The reference compounds are incubated as a cocktail.
Dilution of test compounds was done in 2 steps from a 10 mM DMSO stock solution. First 4 μL stock solution was added to 196 μL of 20% DMSO in potassium phosphate buffer pH 7.4. In a second step 10 μL of the first dilution were added to […] potassium phosphate buffer and 100 μL internal standard solution to a final concentration of 0.8 μM. 100 μL of the final compound dilution were aliquoted into a 96 deep well plate. 12.5 μL liver microsomes were added to each well (0.5 mg/mL final protein concentration) and the samples preincubated for 5 min at 37° C. and 800 rpm agitation.
After the preincubation, 250 μL cold acetonitrile were added to the 0 min samples to prevent a reaction. Following this, 12.5 μL NADPH solution were added to all wells to start the incubation, with the exception of the 0 min and 30 min controls without cofactor, where the NADPH was substituted for phosphate buffer.
The incubations were stopped after 5, 10, 20 and 30 min by adding 250 μL cold acetonitrile to the individual wells.
The quenched samples were then centrifuged at 4000 g for 1 h at 4° C. 100 μL of the supernatant were transferred into 96 well plates for analysis.
The metabolic stability of each compound was determined by measurement of the change in LC-MS/MS peak area over time. Assay Explorer software was used to automatically calculate the slope k of the decline. The intrinsic clearance (CLint) of each compound was then calculated according to the formula: CLint(μL/min/mg protein)=k1000/protein concentration.
CLint is shown for each compound in Table 3 below.

Bounds are passed on as bounds.

With `O=C1NCCC12CCN(c1c(Cl)cncc1-c1ccc3oc(=O)[nH]c3c1)CC2` [Example 3, 5-[5-Chloro-4-(1-oxo-2,8-diaza-spiro[4.5]dec-8-yl)-pyridin-3-yl]-3H-benzooxazol-2-one], the IC50 in the data set on Wnt pathway came to 4.4 nM. In data set [1], the microsomal CLint at 0.8 μM was found to be 35 µL/min/mg.

Consider `Cn1ncc2cc(-c3cncc(Cl)c3N3CCC4(CC3)CNC(=O)O4)ccc21` [Example 4, 8-[3-Chloro-5-(1-methyl-1H-indazol-5-yl)-pyridin-4-yl]-1-oxa-3,8-diaza-spiro[4.5]decan-2-one], for which the IC50 with Wnt pathway is 10 nM. Besides, the microsomal CLint at 0.8 μM in data set [1] was 23 µL/min/mg.

In the case of `CC(C)n1cc(-c2ccc(-c3cncc(Cl)c3N3CCC4(CCNC4=O)CC3)cc2)cn1` [Example 6, 8-{3-Chloro-5-[4-(1-isopropyl-1H-pyrazol-4-yl)-phenyl]-pyridin-4-yl}-2,8-diaza-spiro[4.5]decan-1-one], the IC50 with Wnt pathway came to 6.2 nM. Moreover, in data set [1], the microsomal CLint at 0.8 μM came out at 90 µL/min/mg.

Take `O=C1NCC2(CCN(c3c(Cl)cncc3-c3ccc4oc(=O)[nH]c4c3)CC2)O1` [Example 8, 8-[3-Chloro-5-(2-oxo-2,3-dihydro-benzooxazol-5-yl)-pyridin-4-yl]-1-oxa-3,8-diaza-spiro[4.5]decan-2-one]: the IC50 with Wnt pathway worked out at 9.7 nM. For the same compound, in data set [1], the microsomal CLint at 0.8 μM was found to be 16 µL/min/mg.

`Cn1ncc2ccc(-c3cncc(Cl)c3N3CCC4(CC3)CNC(=O)O4)cc21` [Example 10, 8-[3-Chloro-5-(1-methyl-1H-indazol-6-yl)-pyridin-4-yl]-1-oxa-3,8-diaza-spiro[4.5]decan-2-one]: the IC50 in the data set with Wnt pathway came out at 28 nM. For the same compound, the microsomal CLint at 0.8 μM in data set [1] is 13 µL/min/mg.

Consider `CN1C(=O)Cc2cc(-c3cncc(Cl)c3N3CCC4(CC3)CNC(=O)O4)ccc21` [Example 11, 8-[3-Chloro-5-(1-methyl-2-oxo-2,3-dihydro-1H-indol-5-yl)-pyridin-4-yl]-1-oxa-3,8-diaza-spiro[4.5]decan-2-one], for which the IC50 in the data set with Wnt pathway is 33 nM. In data set [1], the microsomal CLint at 0.8 μM is under 10 µL/min/mg.

Regarding `O=C1CCc2ccc(-c3cncc(Cl)c3N3CCC4(CCNC4=O)CC3)cc2N1` [Example 12, 7-[5-Chloro-4-(1-oxo-2,8-diaza-spiro[4.5]dec-8-yl)-pyridin-3-yl]-3,4-dihydro-1H-quinolin-2-one], in the data set with Wnt pathway, the IC50 was 43 nM. Moreover, the microsomal CLint at 0.8 μM in data set [1] amounted to 27 µL/min/mg.

On to `Nc1n[nH]c2cc(-c3cncc(Cl)c3N3CCC4(CC3)CC(=O)NC4=O)ccc12` [Example 14, 8-[3-(3-Amino-1H-indazol-6-yl)-5-chloro-pyridin-4-yl]-2,8-diaza-spiro[4.5]decane-1,3-dione], for which the IC50 with Wnt pathway worked out at 18 nM. Moreover, the microsomal CLint at 0.8 μM in data set [1] was under 10 µL/min/mg.

Regarding `O=C1NCC2(CCN(c3c(Cl)cncc3-c3ccc(-c4cnn(CCO)c4)cc3)CC2)O1` [Example 15, 8-(3-Chloro-5-{4-[1-(2-hydroxy-ethyl)-1H-pyrazol-4-yl]-phenyl}-pyridin-4-yl)-1-oxa-3,8-diaza-spiro[4.5]decan-2-one], the IC50 in the data set with Wnt pathway was 17 nM. The microsomal CLint at 0.8 μM in data set [1] was under 10 µL/min/mg.

Regarding `Cn1cc(-c2ccc(-c3cncc(Cl)c3N3CCC4(CC3)NC(=O)CNC4=O)cc2)cn1` [Example 17, 9-{3-Chloro-5-[4-(1-methyl-1H-pyrazol-4-yl)-phenyl]-pyridin-4-yl}-1,4,9-triaza-spiro[5.5]undecane-2,5-dione], the IC50 with Wnt pathway worked out at 11 nM. In data set [1] (human liver microsomes 0.5 mg/mL protein), the “Human Clint” value came out at 11 µL/min/mg.

Turning to `CC1=NC(=O)C2(CCN(c3c(Cl)cncc3-c3ccc4c(cnn4C)c3)CC2)N1` [Example 19, 8-[3-Chloro-5-(1-methyl-1H-indazol-5-yl)-pyridin-4-yl]-2-methyl-1,3,8-triaza-spiro[4.5]dec-2-en-4-one], the IC50 with Wnt pathway turned out to be 21 nM. Moreover, the microsomal CLint at 0.8 μM in data set [1] is under 10 µL/min/mg.

In the case of `CC1=NC(=O)C2(CCN(c3c(Cl)cncc3-c3ccc(-c4cnn(C)c4)cc3)CC2)N1` [Example 20, 8-{3-Chloro-5-[4-(1-methyl-1H-pyrazol-4-yl)-phenyl]-pyridin-4-yl}-2-methyl-1,3,8-triaza-spiro[4.5]dec-2-en-4-one], the IC50 in the data set with Wnt pathway was determined as 22 nM. Further, in data set [1], the microsomal CLint at 0.8 μM stood at 24 µL/min/mg.

For `CN1c2ccc(-c3cncc(Cl)c3N3CCC4(CC3)NC(=O)CNC4=O)cc2CS1(=O)=O` [Example 21, 9-[3-Chloro-5-(1-methyl-2,2-dioxo-2,3-dihydro-1H-2l6-benzo[c]isothiazol-5-yl)-pyridin-4-yl]-1,4,9-triaza-spiro[5.5]undecane-2,5-dione], the IC50 in the data set on Wnt pathway is 31 nM. The microsomal CLint at 0.8 μM in data set [1] is under 10 µL/min/mg.

For `CNC(=O)c1ccc(-c2cncc(Cl)c2N2CCC3(CCNC3=O)CC2)cc1` [Example 22, 4-[5-Chloro-4-(1-oxo-2,8-diaza-spiro[4.5]dec-8-yl)-pyridin-3-yl]-N-methyl-benzamide], the IC50 in the data set with Wnt pathway was 46 nM. The microsomal CLint at 0.8 μM in data set [1] came to 27 µL/min/mg.

Turning to `COC(=O)Nc1n[nH]c2cc(-c3cncc(Cl)c3N3CCC4(CCNC4=O)CC3)ccc12` [Example 23, {6-[5-Chloro-4-(1-oxo-2,8-diaza-spiro[4.5]dec-8-yl)-pyridin-3-yl]-1H-indazol-3-yl}-carbamic acid methyl ester], the IC50 in the data set on Wnt pathway came to 39 nM. Further, the microsomal CLint at 0.8 μM in data set [1] is 49 µL/min/mg.

Regarding `Cn1cc(-c2ccc(-c3cncc(Cl)c3N3CCC(F)(C(N)=O)CC3)cc2)cn1` [Example 25, 5′-Chloro-4-fluoro-3′-[4-(1-methyl-1H-pyrazol-4-yl)-phenyl]-3,4,5,6-tetrahydro-2H-[1,4′]bipyridinyl-4-carboxylic acid amide], the IC50 with Wnt pathway is 7 nM. Moreover, the microsomal CLint at 0.8 μM in data set [1] was 23 µL/min/mg.

As to `CC(C)(C)N1Cc2cc(-c3cncc(Cl)c3N3CCC4(CCNC4=O)CC3)ccc2S1(=O)=O` [Example 26, 8-[3-(2-tert-Butyl-1,1-dioxo-2,3-dihydro-1H-1l6-benzo[d]isothiazol-5-yl)-5-chloro-pyridin-4-yl]-2,8-diaza-spiro[4.5]decan-1-one], the IC50 in the data set on Wnt pathway stood at 20 nM. The microsomal CLint at 0.8 μM in data set [1] is 30 µL/min/mg.

`Cn1nc(N)c2ccc(-c3cncc(Cl)c3N3CCC4(CC3)CNC(=O)O4)cc21` [Example 27, 8-[3-(3-Amino-1-methyl-1H-indazol-6-yl)-5-chloro-pyridin-4-yl]-1-oxa-3,8-diaza-spiro[4.5]decan-2-one]: the IC50 in the data set on Wnt pathway amounted to 2 nM. Also, the microsomal CLint at 0.8 μM in data set [1] was 58 µL/min/mg.

With `Cn1nc(N)c2ccc(-c3cncc(Cl)c3N3CCC4(CC3)CC(=O)NC4=O)cc21` [Example 28, 8-[3-(3-Amino-1-methyl-1H-indazol-6-yl)-5-chloro-pyridin-4-yl]-2,8-diaza-spiro[4.5]decane-1,3-dione], in the data set on Wnt pathway, the IC50 is 1.3 nM. The microsomal CLint at 0.8 μM in data set [1] turned out to be 60 µL/min/mg.

Consider `O=C1NCCC12CCN(c1c(Cl)cncc1-c1ccc3c(c1)C(O)CS3(=O)=O)CC2` (stereo not drawn) [Example 29, 8-[3-Chloro-5-(3-hydroxy-1,1-dioxo-2,3-dihydro-1H-1l6-benzo[b]thiophen-5-yl)-pyridin-4-yl]-2,8-diaza-spiro[4.5]decan-1-one], for which, in the data set on Wnt pathway, the IC50 was 16 nM. Moreover, the microsomal CLint at 0.8 μM in data set [1] was determined as 12 µL/min/mg.

With `CN1c2ccc(-c3cncc(Cl)c3N3CCC4(CC3)CC(=O)NN4)cc2CS1(=O)=O` [Example 30, 8-[3-Chloro-5-(1-methyl-2,2-dioxo-2,3-dihydro-1H-2l6-benzo[c]isothiazol-5-yl)-pyridin-4-yl]-1,2,8-triaza-spiro[4.5]decan-3-one], the IC50 with Wnt pathway worked out at 13 nM. The microsomal CLint at 0.8 μM in data set [1] was determined as 27 µL/min/mg.
